Our source for the IC50 values is US12581252B2, “Substituted pyrrolo[3,4-b]pyridines as PI3K-α inhibitors” (Relay Therapeutics, Inc., priority 2020, dated 2026).

The target in one assay is H1047R PIK3CA enzyme (Homo sapiens, UniProt P42336, H1047R). Briefly: ADP-Glo Biochemical PIK3CA Kinase Assay. (In ADP-Glo the light output rises with the ADP produced.)
Another assay can be described thus: cells. Conditions: Homo sapiens, MCF-10A, read-out: MCF10A IC50.

One may read the IC50 as the point on the concentration scale where inhibition reaches its midpoint.

Sequence of H1047R PIK3CA enzyme (P42336 whole entry H1047R): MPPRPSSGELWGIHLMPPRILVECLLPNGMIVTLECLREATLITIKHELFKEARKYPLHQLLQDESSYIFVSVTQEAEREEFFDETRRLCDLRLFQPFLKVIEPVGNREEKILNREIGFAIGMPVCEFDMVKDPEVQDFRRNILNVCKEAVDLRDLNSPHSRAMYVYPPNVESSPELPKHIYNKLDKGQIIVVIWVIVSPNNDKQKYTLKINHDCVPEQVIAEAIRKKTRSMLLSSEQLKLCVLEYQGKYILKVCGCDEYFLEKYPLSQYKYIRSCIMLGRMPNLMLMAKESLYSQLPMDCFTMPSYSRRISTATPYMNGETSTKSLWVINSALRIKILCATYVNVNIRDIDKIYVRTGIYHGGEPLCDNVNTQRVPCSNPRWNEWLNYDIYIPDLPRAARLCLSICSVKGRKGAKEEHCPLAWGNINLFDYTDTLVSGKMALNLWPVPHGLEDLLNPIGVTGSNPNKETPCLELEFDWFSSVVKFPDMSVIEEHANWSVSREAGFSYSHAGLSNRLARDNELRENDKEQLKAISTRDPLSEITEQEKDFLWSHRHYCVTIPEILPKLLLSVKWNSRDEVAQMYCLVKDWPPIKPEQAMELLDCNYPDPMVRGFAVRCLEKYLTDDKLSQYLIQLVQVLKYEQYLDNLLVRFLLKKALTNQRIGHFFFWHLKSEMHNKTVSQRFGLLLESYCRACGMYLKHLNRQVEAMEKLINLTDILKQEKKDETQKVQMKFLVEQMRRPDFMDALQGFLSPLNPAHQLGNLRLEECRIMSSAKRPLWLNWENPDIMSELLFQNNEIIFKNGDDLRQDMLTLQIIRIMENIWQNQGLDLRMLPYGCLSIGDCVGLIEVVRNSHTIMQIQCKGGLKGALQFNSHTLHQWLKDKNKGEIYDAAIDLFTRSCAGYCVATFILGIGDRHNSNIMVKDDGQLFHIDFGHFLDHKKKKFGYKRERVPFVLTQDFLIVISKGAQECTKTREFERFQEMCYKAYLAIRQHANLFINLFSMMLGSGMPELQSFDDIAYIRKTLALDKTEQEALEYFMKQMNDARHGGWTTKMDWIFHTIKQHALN
Sequence of H1047R PIK3CA enzyme (P27986 whole entry partner): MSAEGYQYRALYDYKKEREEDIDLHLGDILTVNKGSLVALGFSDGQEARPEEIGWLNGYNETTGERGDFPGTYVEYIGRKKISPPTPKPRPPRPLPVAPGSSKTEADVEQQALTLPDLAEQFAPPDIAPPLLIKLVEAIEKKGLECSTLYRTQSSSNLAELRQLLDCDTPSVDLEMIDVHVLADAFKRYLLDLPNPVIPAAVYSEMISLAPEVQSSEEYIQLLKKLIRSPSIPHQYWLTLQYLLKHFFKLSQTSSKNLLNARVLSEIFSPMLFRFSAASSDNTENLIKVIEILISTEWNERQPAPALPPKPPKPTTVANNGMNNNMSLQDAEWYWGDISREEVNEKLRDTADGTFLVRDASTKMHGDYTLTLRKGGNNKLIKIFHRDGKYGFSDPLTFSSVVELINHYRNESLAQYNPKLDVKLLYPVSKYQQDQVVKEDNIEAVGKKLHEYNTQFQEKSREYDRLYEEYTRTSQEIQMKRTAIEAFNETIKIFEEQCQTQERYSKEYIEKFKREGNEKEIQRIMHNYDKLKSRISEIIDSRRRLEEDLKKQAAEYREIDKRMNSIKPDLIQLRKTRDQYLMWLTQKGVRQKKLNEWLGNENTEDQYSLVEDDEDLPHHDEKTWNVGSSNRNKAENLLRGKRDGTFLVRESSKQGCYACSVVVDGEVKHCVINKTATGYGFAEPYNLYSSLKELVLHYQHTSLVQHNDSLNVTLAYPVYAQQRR

`O=C(Nc1cc(-c2cnoc2)cc2c1C(c1cc(F)ccc1Cl)NC2=O)c1cc(F)cc(C(F)(F)F)c1` (stereo not drawn) [Compound I-935]: the IC50 was at most 0.1 µM at H1047R PIK3CA enzyme and below 1 µM in the assay “cells”.

Turning to `Nc1cc(NC(=O)N2C[C@@H](O)c3cc(F)ccc32)c2c(c1)C(=O)N[C@@H]2c1cc(F)ccc1Cl` (single isomer, unassigned) [Compound I-2410], the results for the IC50 at H1047R PIK3CA enzyme and in the assay “cells” were at most 0.1 µM and below 1 µM, respectively.

With `Cn1cc(Nc2cc(NC(=O)c3cc(F)cc(C(F)(F)F)c3)c3c(c2)C(=O)NC3c2cc(F)ccc2Cl)nn1` (stereo not drawn) [Compound I-965], the values for the concentration for half-maximal inhibition (IC50) against H1047R PIK3CA enzyme and in “cells” were at most 0.1 µM and below 1 µM, respectively.

In the case of `CNc1cc(NC(=O)N2CC(O)(C(F)(F)F)c3cc(F)ccc32)c2c(c1C#N)C(=O)NC2c1cc(F)ccc1Cl` (stereo not drawn) [Compound I-2587], the values for the IC50 on H1047R PIK3CA enzyme and in “cells” were at most 0.1 µM and 1 to 5 µM, respectively.

Consider `O=C1N[C@H](c2cc(F)ccc2Cl)c2c(NC(=O)N3C[C@@](O)(C(F)(F)F)c4cc(F)ccc43)ccnc21` (single isomer, unassigned) [Compound I-2698], for which the IC50 was at most 0.1 µM at H1047R PIK3CA enzyme and 1 to 5 µM in the assay “cells”.

For the compound `Cn1nc(-c2cc(NC(=O)c3cc(F)cc(C(F)(F)F)c3)c3c(c2)C(=O)NC3c2cc(F)ccc2Cl)ccc1=O` (stereo not drawn) [Compound I-1076], the half-maximal inhibitory concentration (IC50) was at most 0.1 µM on H1047R PIK3CA enzyme and below 1 µM in “cells”.

On to `O=C(Nc1cc(-c2ccc(N3CCOCC3)nc2)cc2c1C(c1cc(F)ccc1Cl)NC2=O)c1cc(F)cc(C(F)(F)F)c1` (stereo not drawn) [Compound I-929], for which the figures for the IC50 against H1047R PIK3CA enzyme and in “cells” were at most 0.1 µM and below 1 µM, respectively.

On to `Cc1ncncc1-c1cc(NC(=O)c2cc(F)cc(C(F)(F)F)c2)c2c(c1)C(=O)NC2c1cc(F)ccc1Cl` (stereo not drawn) [Compound I-985], for which the results for the IC50 at H1047R PIK3CA enzyme and in the assay “cells” were at most 0.1 µM and below 1 µM, respectively.

On to `O=C(Nc1cc(-c2cccnc2)cc2c1[C@@H](c1cc(F)ccc1Cl)NC2=O)c1cc(F)cc(C(F)(F)F)c1` (stereo in doubt) [Compound I-1009], for which the results for the half-maximal inhibitory concentration (IC50) against H1047R PIK3CA enzyme and in the assay “cells” were at most 0.1 µM and below 1 µM, respectively.

As to `C[S+]([O-])Cc1cc(NC(=O)c2cc(F)cc(C(F)(F)F)c2)c2c(c1)C(=O)NC2c1cc(F)ccc1Cl` (stereo not drawn) [Compound I-962], the IC50 was at most 0.1 µM against H1047R PIK3CA enzyme and below 1 µM in “cells”.

Regarding `N#CCc1ccc(NC(=O)N2C[C@](O)(C(F)(F)F)c3cc(F)ccc32)c2c1C(=O)N[C@H]2c1cc(F)ccc1Cl` (single isomer, unassigned) [Compound I-2614], the IC50 was at most 0.1 µM on H1047R PIK3CA enzyme and below 1 µM in the assay “cells”.

`O=C1N[C@H](c2cc(F)ccc2Cl)c2c(NC(=O)N3C[C@H](C(F)F)c4ccccc43)cccc21` (single isomer, unassigned) [Compound I-2333]: the IC50 was at most 0.1 µM at H1047R PIK3CA enzyme and 1 to 5 µM in “cells”.

As to `O=C1NC(c2cc(F)ccc2Cl)c2c(NC(=O)N3CC(O)(C(F)(F)F)c4ccccc43)cc(Cl)cc21` (mixture of isomers) [Compound I-2483], the values for the IC50 on H1047R PIK3CA enzyme and in “cells” were at most 0.1 µM and below 1 µM, respectively.

Consider `CC[C@@]1(O)CN(C(=O)Nc2cccc3c2[C@@H](c2cc(F)ccc2Cl)NC3=O)c2ccc(F)cc21` (single isomer, unassigned) [Compound I-2461], for which the IC50 against H1047R PIK3CA enzyme is at most 0.1 µM; in “cells” it was below 1 µM.

With `COCc1cc(NC(=O)c2cc(F)cc(C(F)(F)F)c2)c2c(c1)C(=O)N[C@H]2c1cc(F)ccc1Cl` [Compound I-691], the values for the IC50 at H1047R PIK3CA enzyme and in “cells” were at most 0.1 µM and below 1 µM, respectively.

In the case of `Cn1nccc1CNc1cc(NC(=O)c2cc(F)cc(C(F)(F)F)c2)c2c(c1)C(=O)NC2c1cc(F)ccc1Cl` (stereo not drawn) [Compound I-1082], the results for the IC50 against H1047R PIK3CA enzyme and in the assay “cells” were at most 0.1 µM and below 1 µM, respectively.

Turning to `Cc1ccccc1C1NC(=O)c2cc(CS(C)(=O)=O)cc(NC(=O)c3nsc4ccccc34)c21` (stereo not drawn) [Compound I-202, N-(6-((Methylsulfonyl)methyl)-1-oxo-3-(o-tolyl)isoindolin-4-yl)benzo[d]isothiazole-3-carboxamide], the IC50 against H1047R PIK3CA enzyme was at most 0.1 µM; in “cells”, below 1 µM.

With `O=C(Nc1cc(NC2=N[C@H](C(F)(F)F)CO2)cc2c1[C@H](c1cc(F)ccc1Cl)NC2=O)c1cc(F)cc(C(F)(F)F)c1` (single isomer, unassigned) [Compound I-2387], the IC50 against H1047R PIK3CA enzyme is at most 0.1 µM; in “cells” it was 1 to 5 µM.

As to `O=C(Nc1cc(-c2c[nH]nn2)cc2c1C(c1cc(F)ccc1Cl)NC2=O)c1cc(F)cc(C(F)(F)F)c1` (stereo not drawn) [Compound I-840], the IC50 against H1047R PIK3CA enzyme is at most 0.1 µM; in “cells” it was below 1 µM.

Consider `N#Cc1cnccc1-c1cc(NC(=O)c2cc(F)cc(C(F)(F)F)c2)c2c(c1)C(=O)NC2c1cc(F)ccc1Cl` (stereo not drawn) [Compound I-1098], for which the values for the IC50 on H1047R PIK3CA enzyme and in “cells” were at most 0.1 µM and below 1 µM, respectively.

As to `O=C(Nc1cc(-c2ccc3ncnn3c2)cc2c1[C@H](c1cc(F)cc(F)c1Cl)NC2=O)c1cc(F)cc(C(F)(F)F)c1` (stereo in doubt) [Compound I-1062], the IC50 was at most 0.1 µM against H1047R PIK3CA enzyme and below 1 µM in “cells”.

Take `N#CN1CC(c2cc(NC(=O)c3cc(F)cc(C(F)(F)F)c3)c3c(c2)C(=O)NC3c2cc(F)ccc2Cl)C1` (stereo not drawn) [Compound I-1157]: the IC50 is at most 0.1 µM against H1047R PIK3CA enzyme and 5 to 10 µM in the assay “cells”.

As to `O=C(Nc1cc(-c2cn3ncnc3cn2)cc2c1C(c1cc(F)ccc1C(F)F)NC2=O)c1cc(F)cc(Cl)c1` (stereo not drawn) [Compound I-2201], the IC50 against H1047R PIK3CA enzyme is at most 0.1 µM; in the assay “cells” it was 1 to 5 µM.

Turning to `O=C(Nc1cc(-c2ccnc3[nH]ccc23)cc2c1C(c1cc(F)ccc1Cl)NC2=O)c1cc(F)cc(C(F)(F)F)c1` (stereo not drawn) [Compound I-1049], the IC50 is at most 0.1 µM on H1047R PIK3CA enzyme and below 1 µM in the assay “cells”.

For the compound `O=C(Nc1cc(-c2ccncc2F)cc2c1[C@@H](c1cc(F)ccc1Cl)NC2=O)c1cc(F)cc(C(F)(F)F)c1` (stereo in doubt) [Compound I-986], the IC50 against H1047R PIK3CA enzyme was at most 0.1 µM; in “cells”, below 1 µM.

For `CS(=O)(=O)Nc1cc(NC(=O)c2cc(F)cc(C(F)(F)F)c2)c2c(c1)C(=O)NC2c1cc(F)ccc1Cl` (stereo not drawn) [Compound I-1159], the figures for the IC50 against H1047R PIK3CA enzyme and in the assay “cells” were at most 0.1 µM and below 1 µM, respectively.

On to `N#CCc1cc(NC(=O)N2C[C@](O)(C(F)F)c3cc(F)ccc32)c2c(c1)C(=O)N[C@H]2c1cc(F)ccc1Cl` (single isomer, unassigned) [Compound I-2601], for which the IC50 against H1047R PIK3CA enzyme is at most 0.1 µM; in “cells” it was below 1 µM.

As to `O=C1N[C@H](c2cc(F)ccc2Cl)c2c(NC(=O)N3C[C@](O)(C(F)(F)F)c4cc(F)ccc43)cc(C(F)F)cc21` (single isomer, unassigned) [Compound I-2579], the IC50 is at most 0.1 µM on H1047R PIK3CA enzyme and below 1 µM in the assay “cells”.

As for `COCc1cc(NC(=O)N2C[C@@](O)(C(F)(F)F)c3cc(F)ccc32)c2c(c1)C(=O)N[C@@H]2c1cc(F)ccc1Cl` (single isomer, unassigned) [Compound I-2541], the half-maximal inhibitory concentration (IC50) against H1047R PIK3CA enzyme is at most 0.1 µM; in the assay “cells”, below 1 µM.

With `CNC(=O)c1cc(NC(=O)c2csc3ccccc23)c2c(c1)C(=O)N[C@H]2c1ccccc1C` [Compound I-76, (S)-7-(Benzo[b]thiophene-3-carboxamido)-N-methyl-3-oxo-1-(o-tolyl)isoindoline-5-carboxamide], the IC50 was at most 0.1 µM at H1047R PIK3CA enzyme and below 1 µM in “cells”.

Take `O=C1COCc2cc(-c3cc(NC(=O)c4cc(F)cc(C(F)(F)F)c4)c4c(c3)C(=O)NC4c3cc(F)ccc3Cl)ccc2N1` (stereo not drawn) [Compound I-1043]: the IC50 against H1047R PIK3CA enzyme is at most 0.1 µM; in “cells”, below 1 µM.

For the compound `CC(C)(O)c1cc(NC(=O)N2C[C@@H](O)c3ccccc32)c2c(c1)C(=O)N[C@H]2c1cc(F)ccc1Cl` (single isomer, unassigned) [Compound I-2124], the IC50 was at most 0.1 µM against H1047R PIK3CA enzyme and 1 to 5 µM in “cells”.

On to `N#CCCc1cc(NC(=O)N2C[C@H](O)c3cc(F)ccc32)c2c(c1)C(=O)N[C@H]2c1cc(F)ccc1Cl` (single isomer, unassigned) [Compound I-2346], for which the IC50 against H1047R PIK3CA enzyme was at most 0.1 µM; in the assay “cells” it was 1 to 5 µM.

Consider `N#Cc1ccc(-c2cc(NC(=O)c3cc(F)cc(C(F)(F)F)c3)c3c(c2)C(=O)N[C@@H]3c2cc(F)ccc2Cl)cn1` (single isomer, unassigned) [Compound I-1000], for which the IC50 at H1047R PIK3CA enzyme is at most 0.1 µM; in “cells” it was below 1 µM.

On to `Cn1cc(-c2cc(NC(=O)c3cc(F)cc(C(F)(F)F)c3)c3c(c2)C(=O)NC3c2cc(F)ccc2Cl)ncc1=O` (stereo not drawn) [Compound I-1016], for which the figures for the IC50 against H1047R PIK3CA enzyme and in “cells” were at most 0.1 µM and below 1 µM, respectively.

Turning to `N#CCc1cc(NC(=O)N2C[C@](O)(C(F)(F)F)c3cc(F)ccc32)c2c(c1)C(=O)N[C@@H]2c1cc(F)ccc1Cl` (single isomer, unassigned) [Compound I-2627], the IC50 against H1047R PIK3CA enzyme was at most 0.1 µM; in the assay “cells”, below 1 µM.

For `O=C(Nc1cc(-c2cc3ccccc3[nH]2)cc2c1C(c1cc(F)ccc1Cl)NC2=O)c1cc(F)cc(C(F)(F)F)c1` (stereo not drawn) [Compound I-971], the IC50 at H1047R PIK3CA enzyme is at most 0.1 µM; in the assay “cells”, below 1 µM.

With `CNC(=O)c1cc(NC(=O)c2csc3ccccc23)c2c(c1)C(=O)NC2c1ccccc1C` (racemic) [Compound I-6, 7-(Benzo[b]thiophene-3-carboxamido)-N-methyl-3-oxo-1-(o-tolyl)isoindoline-5-carboxamide], the IC50 against H1047R PIK3CA enzyme is at most 0.1 µM; in “cells” it was below 1 µM.

In the case of `Cn1ccnc1Nc1cc(NC(=O)c2cc(F)cc(C(F)(F)F)c2)c2c(c1)C(=O)NC2c1cc(F)ccc1Cl` (stereo not drawn) [Compound I-1075], the values for the concentration for half-maximal inhibition (IC50) against H1047R PIK3CA enzyme and in “cells” were at most 0.1 µM and below 1 µM, respectively.

`CNc1cc(NC(=O)c2csc3ccccc23)c2c(c1)C(=O)NC2c1ccccc1C` (stereo not drawn) [Compound I-39]: the IC50 is at most 0.1 µM on H1047R PIK3CA enzyme and 1 to 5 µM in the assay “cells”.

Consider `Cc1ccccc1C1NC(=O)c2cccc(NC(=O)c3csc4cnccc34)c21` (stereo not drawn) [Compound I-46], for which the IC50 against H1047R PIK3CA enzyme fell in the range of 0.1 to 0.5 µM; in the assay “cells” it was 10 to 36 µM.

Regarding `O=C(Nc1cc(-c2ccc3ncnn3c2)cc2c1[C@H](c1cc(F)ccc1Cl)NC2=O)c1cc(F)cc(C(F)(F)F)c1` (single isomer, unassigned) [Compound I-945], the IC50 on H1047R PIK3CA enzyme was at most 0.1 µM; in “cells” it was below 1 µM.
